“Also recorded” adds a separate entry of the source.
Assays:
[1] = test system: STZ-induced diabetic Wistar rats; test: Blood glucose in STZ-induced diabetic rats treated with AGS-500; format: in vivo, rat
Method: The effect of compounds of the present invention on diabetes per se, and disease complications arising as a result of diabetes was evaluated. Streptozotocin treatment of mice and rats are known in vivo diabetes models. Intraperitoneal injections of reduced STZ concentrations (35 mg/kg) was evaluated in mice and rats, in order to determine whether in a model causing only partial damage to pancreatic islet β-cells, whether the compounds of this invention would be helpful. Eight-week-old Wistar female rats received two doses of STZ administered intraperitoneally (60 or 35 mg/kg in 0.1M Citrate buffer; at 5-day intervals), which induced diabetes in all animal, since not all rats that received a single injection of STZ became diabetic in this model. These animals were then treated every 3 days with a subcutaneous injection of compound AGS-500 (6 mg/kg) for from 2-5 weeks to generate a Type I Diabetes phenotype. Blood glucose levels were monitored every 3 days in the rats. Ten weeks after the beginning of this study, each mice group was divided into 2 sub-groups, one of each also received insulin (4 U\Kg) every 2 days, except for the non-diabetic sub-groups. Acetic acid (1%) served as the vehicle control. Diabetes was diagnosed when non-fasting blood glucose levels were above 200 mg/dl. Extension of these studies included treatment of rats divided into 4 groups, as follows: 3 groups received 2 injections of STZ (35 mg/kg) at day 0′ and day 15′, serving as the diabetic group, while the non-diabetic group received 2 injections of Citrate buffer in accordance with the stated schedule. One diabetic group was administered AGS-500 intraperitoneally (6 mg/kg) every 12 hours (12 h) starting at day 4′, the second diabetic group received DMSO every 12 h starting at day 4′, and a third diabetic group was not injected with either AGS-500 or DMSO.

[2] = test system: STZ-induced diabetic ICR mice; test: Glucose Tolerance Test (GTT) in STZ diabetic mice after 2 and 5 months; format: in vivo, mouse; settings: for Improvement (fold): GTT after 2 months; for Fold of Improvement: GTT after 5 months; for Time needed for the Pancreas to cope glucose load after 5 months / Time needed for the Pancreas to cope with glucose load after 2 months: GTT
Method: Glucose Tolerance Test: Animals were fasted for 12 hr with free access to water. Blood-glucose levels after fast were measured and then the animals received an i.p. injection of glucose (1.5 g/kg). Blood samples were taken at several intervals (for the duration of 2 hr), when glucose levels above 200 mg/dl at 2 hr confirmed a diagnosis of diabetes.
[…] Mice were subjected to 12 hours fast (with water) weighed, blood glucose level was measured and Glucose at 1.5 gr/kg in no more than 100 μl was injected IP. Blood glucose levels were measured at 10, 20, 30, 60, 90 and 120 min after glucose injection. glucose tolerance test.

[3] = test system: islets isolated from ICR mice; test: γ-H2AX staining in isolated islet cells treated with STZ; format: cell-based, mouse; settings: STZ 1.5 mM; AGS-500 50 nM, 100 nM, 250 nM; 4 hours
Method: Islets were isolated from 8-10-week-old ICR mice. 30 islets in each group were treated with STZ (1.5 mM) and DMSO or AGS-500 in various concentrations (50 nM, 100 nM, 250 nM) for 4 hours. After 4 h incubation, the islets were enzymatically separated to single cells, cyto-spun and stained with γ-H2AX-specific antibody (A; representative picture—γ-H2AX (light grey), Dapi (dark grey)). Magnification: ×60.
The treatment of rats with AGS-compounds maintained a large β-cell mass in STZ-treated rats. In order to determine whether β-cell mass preservation was a result islet cell protection from STZ-induced DNA damage, γ-H2AX staining was assessed. Phosphorylated gamma H2AX (γ-H2AX) is essential for recognition and repair of DNA double strand breaks. H2AX histone becomes rapidly phosphorylated at its carboxyl terminus to form the so-called γ-H2AX at double strand break sites.
Islets were isolated from 8-10-week-old ICR mice and were treated with STZ (1.5 mM) and DMSO or AGS-500 in various concentrations (50 nM, 100 nM, 250 nM) for 4 hours. After a 4 h incubation, the islets were separated into single cells, cyto-spun, and stained with anti-γ-H2AX-specific antibody for the detection of DNA double strand breaks (FIG. 6).

[4] = STZ rats, AGS-500 6 mg/kg s.c. every 3 days

CC(c1cc(Br)c(O)c(Br)c1)(c1cc(Br)c(O)c(Br)c1)c1cc(Br)c(O)c(Br)c1 [AGS-500, 1,1,1-tris (4-hydroxy-3,5-dibromo-phenyl)-ethane]
Blood glucose levels [1, 4]: 275 ± 18 mg/dL | effect on the rat hyperglycemic state [1, 4]: no effect | blood glucose levels of non-fasting animals ([1]; rats, STZ 35 mg/kg day 0 and 15, AGS-500 6 mg/kg i.p. every 12 h from day 4, FIG. 1A): No reduction | fasting glucose levels (following 12 h fast) ([1]; rats, STZ 35 mg/kg day 0 and 15, AGS-500 6 mg/kg i.p. every 12 h from day 4, FIG. 1B): significant reduction of blood glucose levels to normal; also recorded: Reduction in Blood Glucose Level | Improvement (fold) ([2]; daily): 1.5 fold | Improvement (fold) ([2]; every 48 hrs): 3 fold | Fold of Improvement ([2]; daily): 3 fold | Fold of Improvement ([2]; every 48 hrs): normal | Time needed for the Pancreas to cope glucose load after 5 months ([2]; daily): 30 min | Time needed for the Pancreas to cope with glucose load after 2 months ([2]; daily): 60 min | Time needed for the Pancreas to cope glucose load after 5 months ([2]; every 48 hrs): 20 min | Time needed for the Pancreas to cope with glucose load after 2 months ([2]; every 48 hrs): 30 min | GTT test performed after 5 months ([2]; treatment every 48 hours, FIG. 4): significant improvement in the GTT test | number of γ-H2AX-stained cells [3]: dose-dependent decrease in the number of γ-H2AX-stained cells; also recorded: Reduced γ-H2AX Staining

— patent publication US10111880B2, “Compounds for the treatment of diabetes and disease complications arising from same” (BEN-GURION UNIVERSITY OF THE NEGEV RESEARCH AND DEVELOPMENT …, priority 2013, dated 2018)
